Data on 24 molecules can be found in US8461328B2, “Tricyclic heterocyclic compounds, compositions and methods of use thereof” (Genentech, Inc., priority 2010, dated 2013).

Structures are written as SMILES.

Holding throughout (format): biochemical
In one assay the target is T1, TYK2 (Homo sapiens, UniProt P29597).
T1 construct: made in house; host or cells: SF9 insect cells (baculovirus)
T1 sequence (P29597 873-1187): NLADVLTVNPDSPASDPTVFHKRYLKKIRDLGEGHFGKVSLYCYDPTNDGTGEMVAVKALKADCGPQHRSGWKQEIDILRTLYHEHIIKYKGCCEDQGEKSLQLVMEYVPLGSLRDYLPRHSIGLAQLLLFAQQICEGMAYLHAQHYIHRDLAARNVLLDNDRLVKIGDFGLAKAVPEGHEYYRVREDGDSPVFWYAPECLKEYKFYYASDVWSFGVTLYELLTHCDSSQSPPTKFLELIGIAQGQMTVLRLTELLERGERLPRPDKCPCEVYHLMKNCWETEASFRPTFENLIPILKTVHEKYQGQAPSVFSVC
The experiment in a line: TYK2 inhibition (Table 4).

The target of the next assay is T2, JAK1 (Homo sapiens, UniProt P23458).
T2 construct: made in house; host or cells: SF9 insect cells (baculovirus)
T2 sequence (P23458 852-1154): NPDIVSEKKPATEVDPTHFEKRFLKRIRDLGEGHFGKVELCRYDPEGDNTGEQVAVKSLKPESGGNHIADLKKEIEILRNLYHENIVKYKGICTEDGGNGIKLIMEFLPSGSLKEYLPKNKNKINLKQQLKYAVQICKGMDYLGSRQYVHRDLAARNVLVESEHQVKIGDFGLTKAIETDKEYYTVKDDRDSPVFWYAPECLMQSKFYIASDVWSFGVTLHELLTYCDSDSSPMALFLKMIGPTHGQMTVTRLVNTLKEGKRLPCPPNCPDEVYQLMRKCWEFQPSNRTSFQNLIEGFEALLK
The assay is described as follows: JAK1 inhibition (Table 4). The settings on record: read-out: JAK1 Ki.

Another assay has as its target T3, JAK3 (Homo sapiens, UniProt P52333).
T3 construct: made in house; host or cells: SF9 insect cells (baculovirus)
The assay is described as follows: JAK3 inhibition (Table 4). As to conditions: read-out: JAK3 Ki.

The next assay has as its target T4, JAK2 (Homo sapiens, UniProt O60674).
T4 construct: made in house; host or cells: SF9 insect cells (baculovirus)
The experiment in a line: JAK2 inhibition (Table 4). The settings on record: read-out: JAK2 Ki.

T4 sequence (O60674 812-1132): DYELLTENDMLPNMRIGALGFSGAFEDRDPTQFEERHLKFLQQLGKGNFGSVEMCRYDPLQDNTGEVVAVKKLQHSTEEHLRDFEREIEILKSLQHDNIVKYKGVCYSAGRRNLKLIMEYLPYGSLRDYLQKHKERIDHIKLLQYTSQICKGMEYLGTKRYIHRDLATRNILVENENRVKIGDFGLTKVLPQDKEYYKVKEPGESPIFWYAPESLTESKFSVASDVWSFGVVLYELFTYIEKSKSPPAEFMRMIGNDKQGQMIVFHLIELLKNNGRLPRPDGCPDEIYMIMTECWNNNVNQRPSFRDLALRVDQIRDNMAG
T3 sequence (P52333 783-1124): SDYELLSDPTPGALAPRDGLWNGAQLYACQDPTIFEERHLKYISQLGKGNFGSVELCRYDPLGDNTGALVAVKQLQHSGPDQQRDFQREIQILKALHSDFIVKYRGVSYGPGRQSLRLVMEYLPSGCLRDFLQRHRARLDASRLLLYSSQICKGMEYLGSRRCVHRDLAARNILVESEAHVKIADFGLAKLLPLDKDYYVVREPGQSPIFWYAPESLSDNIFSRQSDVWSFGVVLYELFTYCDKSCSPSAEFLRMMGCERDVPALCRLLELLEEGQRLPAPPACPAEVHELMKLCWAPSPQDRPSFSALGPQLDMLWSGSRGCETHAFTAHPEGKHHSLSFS

By Ki is commonly meant the equilibrium dissociation constant of an inhibitor or competing ligand from its target. As to `N#CCCN1CCC(n2c(CC(=O)N3CC(F)(F)C3)nc3cnc4[nH]ccc4c32)CC1` [Example 274, 3-(4-{2-[2-(3,3-Difluoro-azetidin-1-yl)-2-oxo-ethyl]-6H-1,3,5,6-tetraaza-as-indacen-1-yl]-piperidin-1-yl}-propionitrile], the Ki at TYK2 was 0.259 µM; on JAK1 it was 0.0343 µM; on JAK3, 0.0393 µM; on JAK2, 0.0888 µM.
With `O=CN1CCC(n2cnc3cnc4[nH]ccc4c32)C(F)(F)C1` (stereo not drawn) [Example 180, 3,3-Difluoro-4-(6H-1,2,3,5,6-tetraaza-as-indacen-1-yl)-piperidine-1-carbaldehyde], the Ki was 0.0632 µM on TYK2, 0.00555 µM on JAK1, 0.101 µM on JAK3 and 0.0199 µM at JAK2.
`NC1CCCC(n2cnc3cnc4[nH]ccc4c32)C1` (single isomer, unassigned) [Example 365, 3-(6H-1,3,5,6-Tetraaza-as-indacen-1-yl)-cyclohexylamine]: the Ki at TYK2 was 0.186 µM; on JAK1, 0.0241 µM; at JAK3 it was 0.331 µM; at JAK2, 0.113 µM.
As to `CNc1nc2cnc3[nH]ccc3c2n1C1CCCOC1` (stereo not drawn) [Example 773, Methyl-[1-(tetrahydro-pyran-3-yl)-1,6-dihydro-1,3,5,6-tetraaza-as-indacen-2-yl]-amine], the Ki was determined as 0.149 µM at TYK2, 0.0122 µM at JAK1, 0.126 µM on JAK3 and 0.0814 µM at JAK2.
Taken in the same sequence, the figures for `C[C@@H](O)c1nc2cnc3[nH]ccc3c2n1C1CCC(n2ccnn2)CC1` (stereo partly drawn) [Example 1003, (R)-1-[1-(4-[1,2,3]Triazol-1-yl-cyclohexyl)-1,6-dihydro-1,3,5,6-tetraaza-as-indacen-2-yl]-ethanol] were 0.0382 µM, 0.00516 µM, 0.129 µM and 0.0635 µM.
In the same order, the values of `COC(=O)N[C@H]1CC[C@H](n2nnc3cnc4[nH]ccc4c32)CC1` [Example 353, [4-(6H-1,2,3,5,6-Pentaaza-as-indacen-1-yl)-cyclohexyl]-carbamic acid methyl ester] are 0.0874 µM, 0.00827 µM, 0.216 µM and 0.015 µM.
As to `CC(CC#N)N1CCC(n2c(C3CC(=O)N(C)C3)nc3cnc4[nH]ccc4c32)CC1` (racemic) [Example 395, 3-{4-[2-(1-Methyl-5-oxo-pyrrolidin-3-yl)-6H-1,3,5,6-tetraaza-as-indacen-1-yl]-piperidin-1-yl}-butyronitrile], the Ki is 0.245 µM on TYK2, 0.0177 µM on JAK1, 0.0965 µM on JAK3 and 0.073 µM at JAK2.
Taken in the same sequence, the figures for `O=C(Cc1nc2cnc3[nH]ccc3c2n1C1CCCOC1)NC1CCOCC1` (racemic) [Example 983, N-(Tetrahydro-pyran-4-yl)-2-[1-(tetrahydro-pyran-3-yl)-1,6-dihydro-1,3,5,6-tetraaza-as-indacen-2-yl]-acetamide] were 0.3 µM, 0.0376 µM, 0.1 µM and 0.157 µM.
In the same order, the values of `COC(=O)N[C@@H]1CC[C@@H](n2c(C)nc3cnc4[nH]ccc4c32)C1` [Example 735, [(1R,3R)-3-(2-Methyl-6H-1,3,5,6-tetraaza-as-indacen-1-yl)-cyclopentyl]-carbamic acid methyl ester] are 0.0192 µM, 0.00152 µM, 0.0546 µM and 0.00567 µM.
Consider `Cc1nc2cnc3[nH]ccc3c2n1C1CCC(C)(O)CC1` (stereo not drawn) [Example 994, Trans-1-Methyl-4-(2-methyl-6H-1,3,5,6-tetraaza-as-indacen-1-yl)-cyclohexanol], for which the Ki at TYK2 was found to be 0.0253 µM; at JAK1, 0.00291 µM; at JAK3, 0.017 µM; on JAK2, 0.00802 µM.
`OCc1nc2cnc3[nH]ccc3c2n1C1CC2CCC1O2` (single isomer, unassigned) [Example 852, endo-[1-(7-Oxa-bicyclo[2.2.1]hept-2-yl)-1,6-dihydro-1,3,5,6-tetraaza-as-indacen-2-yl]-methanol]: the Ki was 0.0893 µM on TYK2, 0.0291 µM on JAK1, 0.117 µM at JAK3 and 0.14 µM on JAK2.
In the same order, the values of `N#Cc1cccc(CN2CC[C@@H](n3cnc4cnc5[nH]ccc5c43)C2)c1` [Example 436, 3-[(R)-3-(6H-1,3,5,6-Tetraaza-as-indacen-1-yl)-pyrrolidin-1-ylmethyl]-benzonitrile] are 0.0977 µM, 0.0089 µM, 0.21 µM and 0.0125 µM.
For the molecule `C[C@@H](O)c1nc2cnc3[nH]ccc3c2n1C1CCNCC1F` (stereo partly drawn) [Example 877, (R)-1-[1-(3-Fluoro-piperidin-4-yl)-1,6-dihydro-1,3,5,6-tetraaza-as-indacen-2-yl]-ethanol], the Ki worked out at 0.0109 µM at TYK2, 0.00169 µM at JAK1, 0.0106 µM on JAK3 and 0.0378 µM on JAK2.
Taken in the same sequence, the figures for `Cc1nc2cnc3[nH]ccc3c2n1[C@H]1CC[C@H](NC(=O)N(C)C)CC1` [Example 604, Trans 1,1-dimethyl-3-[4-(2-methyl-6H-1,2,3,5,6-tetraaza-as-indacen-1-yl)-cyclohexyl]-urea] were 0.244 µM, 0.0164 µM, 0.249 µM and 0.046 µM.
Consider `O=C(NC1CCC(n2cnc3cnc4[nH]ccc4c32)CC1)OCc1cccnc1` (stereo not drawn) [Example 744, [4-(6H-1,3,5,6-tetraaza-as-indacen-1-yl)-cyclohexyl]-carbamic acid pyridin-3-ylmethyl ester], for which the Ki on TYK2 came out at 0.086 µM; on JAK1, 0.00715 µM; on JAK3 it was 0.0892 µM; at JAK2, 0.0178 µM.
On to `N#CCCN1CCC(n2c(C3CC3)nc3cnc4[nH]ccc4c32)CC1` [Example 337, 3-[4-(2-Cyclopropyl-6H-1,3,5,6-tetraaza-as-indacen-1-yl)-piperidin-1-yl]-propionitrile], for which the Ki at TYK2 came out at 0.0337 µM; on JAK1, 0.0029 µM; on JAK3 it was 0.0107 µM; at JAK2, 0.00531 µM.
In the same order, the values of `CS(=O)(=O)CC[C@H]1CC[C@H](n2c(CO)nc3cnc4[nH]ccc4c32)CC1` [Example 652, Trans {1-[4-(2-methanesulfonyl-ethyl)-cyclohexyl]-1,6-dihydro-1,2,3,5,6-tetraaza-as-indacen-2-yl}-methanol] are 0.0037 µM, 0.00081 µM, 0.039 µM and 0.00438 µM.
Taken in the same sequence, the figures for `Cc1nc2cnc3[nH]ccc3c2n1[C@@H]1CC[C@@H](NCC(F)(F)F)C1` [Example 720, [(1R,3R)-3-(2-Methyl-6H-1,3,5,6-tetraaza-as-indacen-1-yl)-cyclopentyl]-(2,2,2-trifluoro-ethyl)-amine] were 0.0545 µM, 0.0066 µM, 0.0881 µM and 0.0183 µM.
In the same order, the values of `CS(=O)(=O)c1cccc(CN2CCC(n3cnc4cnc5[nH]ccc5c43)CC2)c1` [Example 91, 1-[1-(3-Methanesulfonyl-benzyl)-piperidin-4-yl]-1,6-dihydro-1,3,5,6-tetraaza-as-indacene] are 0.142 µM, 0.00064 µM, 0.0821 µM and 0.00331 µM.
For the molecule `OCc1nc2cnc3[nH]ccc3c2n1C1CCN(Cc2ccccc2)CC1(F)F` (racemic) [Example 947, [1-(1-Benzyl-3,3-difluoro-piperidin-4-yl)-1,6-dihydro-1,3,5,6-tetraaza-as-indacen-2-yl]-methanol], the Ki on TYK2 worked out at 0.00563 µM; at JAK1 it was 0.00042 µM; on JAK3, 0.00214 µM; on JAK2, 0.00129 µM.
On to `Cc1nc2cnc3[nH]ccc3c2n1C1CCN(S(C)(=O)=O)CC1` [Example 86, 1-(1-Methanesulfonyl-piperidin-4-yl)-2-methyl-1,6-dihydro-1,3,5,6-tetraaza-as-indacene], for which the Ki at TYK2 was 0.0486 µM; at JAK1, 0.00753 µM; on JAK3 it was 0.0716 µM; on JAK2 it was 0.0178 µM.
In the case of `CC1CC(n2cnc3cnc4[nH]ccc4c32)CCN1` (racemic) [Example 229, 1-(2-Methyl-piperidin-4-yl)-1,6-dihydro-1,3,5,6-tetraaza-as-indacene], the Ki on TYK2 is 0.33 µM; at JAK1, 0.0487 µM; at JAK3, 0.417 µM; on JAK2, 0.142 µM.
Taken in the same sequence, the figures for `CC1CC(n2cnc3cnc4[nH]ccc4c32)CCN1Cc1ccccc1` (racemic) [Example 128, 1-(1-Benzyl-2-methyl-piperidin-4-yl)-1,6-dihydro-1,2,3,5,6-tetraaza-as-indacene] were 0.0826 µM, 0.00209 µM, 0.0608 µM and 0.00211 µM.
Turning to `CCS(=O)(=O)N1CCC(n2cnc3cnc4[nH]ccc4c32)CC1` [Example 442, 1-(1-Ethanesulfonyl-piperidin-4-yl)-1,6-dihydro-1,3,5,6-tetraaza-as-indacene], the Ki on TYK2 came out at 0.0188 µM; on JAK1, 0.00287 µM; at JAK3, 0.105 µM; at JAK2, 0.00402 µM.
